Measured values from US20180099931A1 (AbbVie S.à.r.l., priority 2016, published 2018).
Where two headings read alike, the source gives them in different places.

Molecular target: T1, F508delCFTR (Homo sapiens, UniProt P13569, DEL508-508)
T1 construct: expressed in transfected cells; host or cells: CFBE41o- human lung-derived epithelial cells (CFBE4lo-F508delCFTR-HRP), doxycycline-inducible
Assay: Cell Surface Expression-Horse Radish Peroxidase (CSE-HRP) Assay;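 for Maximum % activity (with co-corrector): co-corrector and positive control are both the same reference corrector at 2 µM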;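 for Maximum % activity (without co-corrector): percent of the 2 µM on-plate positive control corrector response above DMSO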
Assay type: cell-based
Conditions: for Maximum % activity (with co-corrector) / Emax: maximum at any tested concentration, normalized to on-plate positive control; for Emax: read-out: Maximum % activity (without co-corrector)

[1] = CSE-HRP, test compound without co-corrector, read-out: EC50 (without co-corrector)
[2] = CSE-HRP, with co-corrector (2 μM of 3-[(2R,4R)-4-({[1-(2,2-difluoro-1,3-benzodioxol-5-yl)cyclopropyl]carbonyl}amino)-7-methoxy-3,4-dihydro-2H-chromen-2-yl]benzoic acid), read-out: EC50 (with co-corrector)
[3] = CSE-HRP, with co-corrector (2 μM)
[4] = test compound without co-corrector, read-out: EC50 (without co-corrector)
[5] = with co-corrector (2 μM of 3-[(2R,4R)-4-({[1-(2,2-difluoro-1,3-benzodioxol-5-yl)cyclopropyl]carbonyl}amino)-7-methoxy-3,4-dihydro-2H-chromen-2-yl]benzoic acid), read-out: EC50 (with co-corrector)
[6] = test compound without co-corrector
[7] = with co-corrector (2 μM of 3-[(2R,4R)-4-({[1-(2,2-difluoro-1,3-benzodioxol-5-yl)cyclopropyl]carbonyl}amino)-7-methoxy-3,4-dihydro-2H-chromen-2-yl]benzoic acid)

T1 sequence (P13569 with tags, fused parts or gaps DEL508-508): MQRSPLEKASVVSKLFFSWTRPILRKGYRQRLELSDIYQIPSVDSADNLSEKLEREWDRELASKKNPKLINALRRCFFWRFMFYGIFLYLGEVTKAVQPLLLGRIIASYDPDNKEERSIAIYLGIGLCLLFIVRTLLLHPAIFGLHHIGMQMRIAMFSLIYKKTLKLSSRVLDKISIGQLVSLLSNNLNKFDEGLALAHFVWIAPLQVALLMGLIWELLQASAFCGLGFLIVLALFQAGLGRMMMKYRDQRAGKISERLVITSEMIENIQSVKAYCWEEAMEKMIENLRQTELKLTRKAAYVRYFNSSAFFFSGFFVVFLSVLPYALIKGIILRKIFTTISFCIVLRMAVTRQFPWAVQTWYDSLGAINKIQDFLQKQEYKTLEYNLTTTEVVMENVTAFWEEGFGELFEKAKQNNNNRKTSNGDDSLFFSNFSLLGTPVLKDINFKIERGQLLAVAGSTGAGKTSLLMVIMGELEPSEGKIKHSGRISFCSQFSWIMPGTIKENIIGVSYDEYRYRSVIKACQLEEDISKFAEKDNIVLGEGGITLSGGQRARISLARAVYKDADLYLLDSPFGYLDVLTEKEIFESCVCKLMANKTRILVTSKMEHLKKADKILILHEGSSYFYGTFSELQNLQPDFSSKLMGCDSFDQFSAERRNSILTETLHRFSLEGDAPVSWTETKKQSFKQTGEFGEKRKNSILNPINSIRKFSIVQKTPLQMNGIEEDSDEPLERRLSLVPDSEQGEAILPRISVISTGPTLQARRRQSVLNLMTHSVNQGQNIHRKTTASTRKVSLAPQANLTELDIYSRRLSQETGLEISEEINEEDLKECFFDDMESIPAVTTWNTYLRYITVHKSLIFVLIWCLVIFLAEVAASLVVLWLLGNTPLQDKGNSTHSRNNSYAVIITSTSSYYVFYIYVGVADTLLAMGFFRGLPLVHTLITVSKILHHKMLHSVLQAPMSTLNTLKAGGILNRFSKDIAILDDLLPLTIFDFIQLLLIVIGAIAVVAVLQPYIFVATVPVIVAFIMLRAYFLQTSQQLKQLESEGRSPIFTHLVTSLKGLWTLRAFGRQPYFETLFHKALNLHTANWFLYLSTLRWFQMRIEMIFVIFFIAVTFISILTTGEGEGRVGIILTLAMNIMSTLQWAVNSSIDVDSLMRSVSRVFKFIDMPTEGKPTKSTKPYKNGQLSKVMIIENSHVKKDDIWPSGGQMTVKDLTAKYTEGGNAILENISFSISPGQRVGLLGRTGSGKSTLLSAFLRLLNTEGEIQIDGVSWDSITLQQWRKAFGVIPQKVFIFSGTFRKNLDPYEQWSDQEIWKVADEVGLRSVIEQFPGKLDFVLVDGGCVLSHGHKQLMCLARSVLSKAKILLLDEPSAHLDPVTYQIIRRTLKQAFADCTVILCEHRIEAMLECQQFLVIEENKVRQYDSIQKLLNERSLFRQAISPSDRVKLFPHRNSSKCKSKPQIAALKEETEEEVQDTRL

Row | EC50 [1] | EC50 [2] | Maximum % activity (with co-corrector) [3] | Emax (CSE-HRP, without co-corrector) | EC50 [4] | EC50 [5] | Maximum % activity (with co-corrector) (with co-corrector (2 μM)) | Emax (without co-corrector) | Emax [6] | Maximum % activity (with co-corrector) [7] | Structure (SMILES)
1 | 1000 to 10000 nM | 1000 to 10000 nM | ++ (≥150 and <350) | < 100% | – | – | – | – | – | – | COc1cc(C(F)(F)F)ccc1CN[C@@H]1[C@@H](C(C)(C)C)[C@H](C(=O)O)N(C(=O)C2CCC(F)(F)CC2)[C@@H]1c1ccccc1 (racemic) [II-69]
2 | – | – | – | – | 1000 to 10000 nM | 1000 to 10000 nM | +++ (≥350) | 100 to 200% | – | – | COc1ncc(C(F)(F)F)cc1CN[C@H]1[C@H](C(C)(C)C)[C@@H](C(=O)O)N(C(=O)C2CCCCC2)[C@H]1c1cccnc1N(C)C [Example I-120]
3 | – | – | – | – | 1000 to 10000 nM | 1000 to 10000 nM | +++ (≥350) | 100 to 200% | – | – | COc1ccc(C(C)(C)C#N)cc1CN[C@H]1[C@H](C(C)(C)C)[C@@H](C(=O)O)N(C(=O)C2CCCCC2)[C@H]1c1ccccc1 [Example I-88]
4 | – | – | – | – | < 1000 nM | < 1000 nM | +++ (≥350) | > 200% | – | – | COc1ncc(C(F)(F)F)cc1CN[C@H]1[C@H](C(C)(C)C)[C@@H](C(=O)O)N(C(=O)C2CCCC2)[C@H]1c1ccccc1C(C)C [Example 98, (2S,3S,4S,5S)-3-tert-butyl-1-(cyclopentanecarbonyl)-4-({[2-methoxy-5-(trifluoromethyl)pyridin-3-yl]methyl}amino)-5-[2-(propan-2-yl)phenyl]pyrrolidine-2-carboxylic acid]
5 | – | – | – | – | 1000 to 10000 nM | 1000 to 10000 nM | – | – | > 200% | +++ (≥350) | COc1ccc(C(C)(C)C)cc1CN[C@H]1[C@H](C(C)(C)C)[C@@H](C(=O)O)N(C(=O)C(C)C2CCCCO2)[C@H]1c1ccccc1 (stereo partly drawn) [II-457]
6 | – | – | – | – | 1000 to 10000 nM | 1000 to 10000 nM | – | – | > 200% | +++ (≥350) | COc1ccc(C(C)(C)C)cc1CN[C@H]1[C@H](C(C)(C)C)[C@@H](C(=O)O)N(C(=O)C2CCC(F)(F)C2)[C@H]1c1ccccc1 (stereo partly drawn) [II-334]
7 | 1000 to 10000 nM | < 1000 nM | +++ (≥350) | > 200% | – | – | – | – | – | – | COc1ccc(C(C)(C)C)cc1CN[C@H]1[C@H](C(C)(C)C)[C@@H](C(=O)O)N(C(=O)Cc2ncc(Cl)cc2F)[C@H]1c1ccccc1 [II-236]
8 | 1000 to 10000 nM | 1000 to 10000 nM | +++ (≥350) | 100 to 200% | – | – | – | – | – | – | CC(C)c1ccccc1[C@H]1[C@@H](NCc2cccc3c2OC(C)(C)C3)[C@H](C(C)(C)C)[C@@H](C(=O)O)N1C(=O)[C@@H]1CCCO1 [Example I-305]
9 | – | – | – | – | 1000 to 10000 nM | 1000 to 10000 nM | ++ (≥150 and <350) | – | < 100% | – | COc1ccc(-c2cnn(C3CC3)c2)cc1CN[C@H]1[C@H](C(C)(C)C)[C@@H](C(=O)O)N(C(=O)C2CCCCC2)[C@H]1c1ccccc1 [III-187]
10 | – | – | – | – | 1000 to 10000 nM | 1000 to 10000 nM | +++ (≥350) | > 200% | – | – | COc1ccc(C(F)(F)F)cc1CN[C@H]1[C@H](C(C)(C)C)[C@@H](C(=O)O)N(C(=O)[C@H]2CCC[C@H](OC)C2)[C@H]1c1ccccc1 [Example I-60]
11 | – | – | – | – | 1000 to 10000 nM | < 1000 nM | +++ (≥350) | > 200% | – | – | COc1ccc(C(C)(C)C)cc1CN[C@H]1[C@H](C(C)(C)C)[C@@H](C(=O)O)N(C(=O)[C@@H]2C[C@H]3CC[C@@H]2O3)[C@H]1c1ccccc1C(C)C (relative stereo) [Example 74, (2S,3S,4S,5S)-3-tert-butyl-4-{[(5-tert-butyl-2-methoxyphenyl)methyl]amino}-1-[(1S*,2R*,4R*)-7-oxabicyclo[2.2.1]heptane-2-carbonyl]-5-[2-(propan-2-yl)phenyl]pyrrolidine-2-carboxylic acid]
12 | < 1000 nM | < 1000 nM | +++ (≥350) | > 200% | – | – | – | – | – | – | COc1ccc(-c2ccccc2C)cc1CN[C@H]1[C@H](C(C)(C)C)[C@@H](C(=O)O)N(C(=O)C2CCCCC2)[C@H]1c1ccccc1 [II-279]
13 | – | – | – | – | 1000 to 10000 nM | 1000 to 10000 nM | +++ (≥350) | 100 to 200% | – | – | COc1ccc(-c2ccccc2C#N)cc1CN[C@H]1[C@H](C(C)(C)C)[C@@H](C(=O)O)N(C(=O)C2CCCCC2)[C@H]1c1ccccc1 [Example I-128]
14 | – | – | – | – | > 10000 nM | < 1000 nM | + (<150) | – | < 100% | – | CC(C)OC(=O)N1[C@H](C(=O)O)[C@@H](C(C)(C)C)[C@H](NCC2CCN(C(C)C)CC2)[C@@H]1c1ccccc1 [III-235]
15 | – | – | – | – | > 10000 nM | 1000 to 10000 nM | – | – | < 100% | ++ (≥150 and <350) | COCCS(=O)(=O)NC(=O)[C@H]1[C@H](C(C)(C)C)[C@@H](Nc2cc(C(F)(F)F)cc(C)n2)[C@@H](c2ccccc2)N1C(=O)C1CCCCC1 (racemic) [Example III-49, rac-(2R,3R,4R,5R)-3-(tert-butyl)-1-(cyclohexanecarbonyl)-N-((2-methoxyethyl)sulfonyl)-4-((6-methyl-4-(trifluoromethyl)pyridin-2-yl)amino)-5-phenylpyrrolidine-2-carboxamide]
16 | 1000 to 10000 nM | < 1000 nM | +++ (≥350) | 100 to 200% | – | – | – | – | – | – | COc1ccc(C(C)(C)C)cc1CN[C@H]1[C@H](C(C)(C)C)[C@@H](C(=O)O)N(C(=O)c2cccc3c2OCC3)[C@H]1c1ccccc1 [II-222]
17 | – | – | – | – | 1000 to 10000 nM | 1000 to 10000 nM | – | – | < 100% | ++ (≥150 and <350) | CC(C)N(C(=O)N1[C@H](c2ccccc2)[C@H](NCc2ccccc2OC(F)F)[C@@H](C)[C@@H]1C(=O)O)C(C)C (racemic) [III-34]
18 | – | – | – | – | 1000 to 10000 nM | 1000 to 10000 nM | +++ (≥350) | 100 to 200% | – | – | COc1cnc(C(C)(C)C)cc1CN[C@H]1[C@H](C(C)(C)C)[C@@H](C(=O)O)N(C(=O)C2CCCCC2)[C@H]1c1ccccc1 [Example 48, (2S,3S,4S,5S)-3-tert-butyl-4-{[(2-tert-butyl-5-methoxypyridin-4-yl)methyl]amino}-1-(cyclohexanecarbonyl)-5-phenylpyrrolidine-2-carboxylic acid]
19 | – | – | – | – | > 10000 nM | 1000 to 10000 nM | – | – | < 100% | ++ (≥150 and <350) | CC(C)(C)[C@@H]1[C@@H](NCc2cc(C(F)(F)F)cnc2N)[C@@H](c2ccccc2)N(C(=O)C2CCCCC2)[C@H]1C(=O)O (racemic) [III-74]
20 | – | – | – | – | 1000 to 10000 nM | 1000 to 10000 nM | +++ (≥350) | > 200% | – | – | COc1ncc(C2CC3CCC2C3)cc1CN[C@H]1[C@H](C(C)(C)C)[C@@H](C(=O)O)N(C(=O)C2CCCCC2)[C@H]1c1cccnc1N(C)C (stereo partly drawn) [Example I-133]
21 | – | – | – | – | 1000 to 10000 nM | < 1000 nM | +++ (≥350) | > 200% | – | – | COc1ncc(C2CC2)cc1CN[C@H]1[C@H](C(C)(C)C)[C@@H](C(=O)O)N(C(=O)C2CCCCC2)[C@H]1c1ccccc1C [Example 105, (2S,3S,4S,5S)-3-tert-butyl-1-(cyclohexanecarbonyl)-4-{[(5-cyclopropyl-2-methoxypyridin-3-yl)methyl]amino}-5-(2-methylphenyl)pyrrolidine-2-carboxylic acid]
